Source: patent US20210130826A1, “METHODS OF MODULATING ANTISENSE ACTIVITY” (IONIS PHARMACEUTICALS, INC., priority 2018, published 2021)

Test system: LC3B
Assay: Liver protein analysis in mice: LC3B II/I ratio
Format: in vivo
Conditions: Table 30; mouse liver 24 h; oligonucleotide 5 mg/kg (or PBS); Treatment AZD8055 5 mg/kg at 0, 12, 22 h
Protocol: The following experiments were performed to determine if the effects of autophagy modulators on antisense activity in vitro can be observed in vivo. Groups of 3-4 8-week-old male C57bl/6J mice were administered 5 mg/kg control oligonucleotide 141923, or 5 mg/kg antisense oligonucleotide 399462. Following administration of modified oligonucleotide, mice were administered 1% DMSO or 5 mg/kg AZD8055 in 1% DMSO at three time points over 24 hours: at the time of administration of the modified oligonucleotide, and 12 and 22 hours after administration of the modified oligonucleotide. A group of control mice was administered PBS at time 0 and 1% DMSO at 0, 12, and 22 hours. Mice were sacrificed at 24 hours after administration of the modified oligonucleotide and tissues were collected for analysis.
Autophagy activation was confirmed in livers by determining suppression of mTOR kinase activity (pS6/S6 levels), determining an increased LC3B II/I ratio (a marker for the formation of autophagosomes), and determining p62 degradation (related to the clearance of autophagosomes). Protein analysis was carried out on liver tissue using standard procedures. All proteins were normalized to α-tubulin. Phospho-S6 Ribosomal Protein (Ser240/244) (2215S), and S6 Ribosomal Protein (2217S) antibodies were obtained from Cell Signaling Technology. The antibody against LC3B (ab48394) was purchased from Abcam. […]

COc1ccc(-c2ccc3c(N4CCOC[C@@H]4C)nc(N4CCOC[C@@H]4C)nc3n2)cc1CO [AZD8055]
LC3B II/I ratio: 2.3
